The nature of data set [1]: Half life in human plasma by LC-MS/MS analysis. It is filed as ADME, cell-free.
A short description of data set [2]: Half life in Sprague-Dawley rat plasma by LC-MS/MS analysis. In kind it is ADME, cell-free.
Data set [3] in a line: Stability in PBS. It is filed as physicochemical. The note with it: buffer.
Data set [4] deals with Rattus norvegicus. Description: Antihyperalgesic activity in Sprague-Dawley rat model of Complete freund's adjuvant-induced arthritis assessed as increase in pain threshold of ipsilateral paw at 10 mg/kg, po starting from day 14 after CFA injection and measured at 0 to 60 mins by paw pressure test. It is filed as functional, organism-based.
Data set [5] concerns the target COX1 (Prostaglandin G/H synthase 1) (Homo sapiens, UniProt P23219). Description: Inhibition of COX1 in human platelet rich plasma in assessed as inhibition of ADP-induced platelet aggregation at 10 uM incubated for 5 mins by turbidimetry based Born's method relative to control.
Data set [6] addresses T1, Prostaglandin G/H synthase 2 (Mus musculus) (UniProt Q05769).
T1 sequence (whole entry): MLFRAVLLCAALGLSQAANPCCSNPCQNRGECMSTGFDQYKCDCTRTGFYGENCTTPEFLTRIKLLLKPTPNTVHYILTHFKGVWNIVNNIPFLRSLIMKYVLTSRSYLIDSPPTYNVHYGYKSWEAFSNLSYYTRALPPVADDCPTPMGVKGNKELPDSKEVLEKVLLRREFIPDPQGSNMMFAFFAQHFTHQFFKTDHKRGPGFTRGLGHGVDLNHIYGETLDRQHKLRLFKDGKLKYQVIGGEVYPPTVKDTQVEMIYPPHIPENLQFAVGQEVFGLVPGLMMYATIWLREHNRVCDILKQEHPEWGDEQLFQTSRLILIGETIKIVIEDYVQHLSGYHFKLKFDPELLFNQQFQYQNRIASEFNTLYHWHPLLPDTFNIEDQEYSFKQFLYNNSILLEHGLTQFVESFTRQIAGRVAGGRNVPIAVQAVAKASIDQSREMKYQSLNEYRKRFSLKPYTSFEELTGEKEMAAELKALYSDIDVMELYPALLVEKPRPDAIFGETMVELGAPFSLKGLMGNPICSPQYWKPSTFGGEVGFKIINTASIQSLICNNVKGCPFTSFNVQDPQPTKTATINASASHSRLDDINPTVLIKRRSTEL
Description: Inhibition of COX2 in mouse RAW264.7 cells assessed as reduction in LPS-induced inflammation by measuring reduction in PGE2 level at 1 uM treated 1 hr after LPS stimulation and measured after 18 hrs by ELISA relative to control. It is filed as cell-based. (In general: An ELISA detects its analyte on a solid surface through an enzyme-linked reagent.)

Data set [7] addresses T1, Prostaglandin G/H synthase 2 (Mus musculus). Description: Inhibition of COX2 in mouse RAW264.7 cells assessed as reduction in LPS-induced inflammation by measuring reduction in PGE2 level at 100 uM treated 1 hr after LPS stimulation and measured after 18 hrs by ELISA relative to control. In kind it is cell-based.
The subject of data set [8] is Rattus norvegicus. Description: Antihyperalgesic activity in Sprague-Dawley rat model of Complete freund's adjuvant-induced arthritis assessed as reduction in difference between weight burdened on contralateral and ipsilateral paw at 30 mg/kg, po starting from day 14 after CFA injection and measured at 30 mins incapacitance test. In kind it is functional, organism-based.

The subject of data set [9] is Rattus norvegicus. Description: Antihyperalgesic activity in Sprague-Dawley rat model of Complete freund's adjuvant-induced arthritis assessed as increase in pain threshold of ipsilateral paw at 30 mg/kg, po starting from day 14 after CFA injection and measured at 15 to 30 mins by paw pressure test. In kind it is functional, organism-based.
The subject of data set [10] is Rattus norvegicus. In words: Antihyperalgesic activity in Sprague-Dawley rat model of Complete freund's adjuvant-induced arthritis assessed as reduction in difference between weight burdened on contralateral and ipsilateral paw at 30 mg/kg, po starting from day 14 after CFA injection and measured at 15 mins incapacitance test. In kind it is functional, organism-based.

The test system of data set [11] is Rattus norvegicus. Description: Antihyperalgesic activity in Sprague-Dawley rat model of Complete freund's adjuvant-induced arthritis assessed as reduction in difference between weight burdened on contralateral and ipsilateral paw at 30 mg/kg, po starting from day 14 after CFA injection and measured at 45 mins incapacitance test. It is filed as functional, organism-based.

Data set [12] concerns Rattus norvegicus. In words: Antihyperalgesic activity in Sprague-Dawley rat model of Complete freund's adjuvant-induced arthritis assessed as reduction in difference between weight burdened on contralateral and ipsilateral paw at 30 mg/kg, po starting from day 14 after CFA injection and measured at 15 to 30 mins incapacitance test. In kind it is functional, organism-based.

Data set [13] has as its target Carbonic anhydrase 2 (Homo sapiens) (UniProt P00918).
Description: Inhibition of human CA2 pre-incubated for 6 hrs by stopped- flow CO2 hydrase assay method based Cheng-Prusoff equation analysis
Data set [14] addresses Carbonic anhydrase 12 (Homo sapiens) (UniProt O43570).
Description: Inhibition of human CA12 pre-incubated for 6 hrs by stopped- flow CO2 hydrase assay method based Cheng-Prusoff equation analysis
For data set [15], the target named is Carbonic anhydrase 9 (Homo sapiens) (UniProt Q16790).
Description: Inhibition of human CA9 pre-incubated for 6 hrs by stopped- flow CO2 hydrase assay method based Cheng-Prusoff equation analysis
For data set [16], the target named is Carbonic anhydrase 7 (Homo sapiens) (UniProt P43166).
Chain of Carbonic anhydrase 7 (Homo sapiens) (P43166 whole entry): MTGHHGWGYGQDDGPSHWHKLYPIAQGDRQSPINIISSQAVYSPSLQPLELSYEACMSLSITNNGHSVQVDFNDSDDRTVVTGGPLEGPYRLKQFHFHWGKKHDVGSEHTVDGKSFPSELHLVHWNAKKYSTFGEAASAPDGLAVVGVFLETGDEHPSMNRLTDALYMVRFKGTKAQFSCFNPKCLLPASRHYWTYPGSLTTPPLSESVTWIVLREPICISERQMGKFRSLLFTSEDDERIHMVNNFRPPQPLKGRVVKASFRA
Description: Inhibition of human CA7 pre-incubated for 6 hrs by stopped- flow CO2 hydrase assay method based Cheng-Prusoff equation analysis
Data set [17] concerns the target Carbonic anhydrase 1 (Homo sapiens) (UniProt P00915).
Description: Inhibition of human CA1 pre-incubated for 6 hrs by stopped- flow CO2 hydrase assay method based Cheng-Prusoff equation analysis
Data set [18] addresses Carbonic anhydrase 4 (Homo sapiens) (UniProt P22748).
Description: Inhibition of human CA4 pre-incubated for 6 hrs by stopped- flow CO2 hydrase assay method based Cheng-Prusoff equation analysis
Data set [19] relates to Rattus norvegicus. In words: Antihyperalgesic activity in Sprague-Dawley rat model of Complete freund's adjuvant-induced arthritis assessed as increase in pain threshold of ipsilateral paw at 100 mg/kg, po starting from day 14 after CFA injection and measured at 15 mins by paw pressure test. It is filed as functional, organism-based.

This note sets out measurements from ChEMBL document CHEMBL4402543, “Bioisosteric Development of Multitarget Nonsteroidal Anti-Inflammatory Drug-Carbonic Anhydrases Inhibitor Hybrids for the Management of Rheumatoid Arthritis” (J Med Chem, 2020).

Structures are written as SMILES. The source made the active and inactive calls. Bounds are passed on as bounds.

Chain of COX1 (Prostaglandin G/H synthase 1) (P23219 whole entry): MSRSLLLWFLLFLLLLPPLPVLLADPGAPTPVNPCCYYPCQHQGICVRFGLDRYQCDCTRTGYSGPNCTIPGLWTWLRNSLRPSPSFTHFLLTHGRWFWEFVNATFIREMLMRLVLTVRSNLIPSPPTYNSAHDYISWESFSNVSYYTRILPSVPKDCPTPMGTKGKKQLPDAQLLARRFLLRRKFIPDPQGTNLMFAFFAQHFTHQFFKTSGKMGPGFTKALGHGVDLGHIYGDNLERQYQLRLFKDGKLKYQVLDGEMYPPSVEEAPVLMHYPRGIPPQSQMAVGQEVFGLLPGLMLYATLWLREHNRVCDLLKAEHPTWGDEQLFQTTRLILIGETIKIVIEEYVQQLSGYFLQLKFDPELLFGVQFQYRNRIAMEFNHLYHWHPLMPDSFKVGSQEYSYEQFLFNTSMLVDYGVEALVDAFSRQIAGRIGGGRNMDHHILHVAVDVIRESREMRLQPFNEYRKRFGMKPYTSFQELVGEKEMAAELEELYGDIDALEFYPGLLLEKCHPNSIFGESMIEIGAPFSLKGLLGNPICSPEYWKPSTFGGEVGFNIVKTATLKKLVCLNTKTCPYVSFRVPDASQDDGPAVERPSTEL
Chain of Carbonic anhydrase 12 (Homo sapiens) (O43570 whole entry): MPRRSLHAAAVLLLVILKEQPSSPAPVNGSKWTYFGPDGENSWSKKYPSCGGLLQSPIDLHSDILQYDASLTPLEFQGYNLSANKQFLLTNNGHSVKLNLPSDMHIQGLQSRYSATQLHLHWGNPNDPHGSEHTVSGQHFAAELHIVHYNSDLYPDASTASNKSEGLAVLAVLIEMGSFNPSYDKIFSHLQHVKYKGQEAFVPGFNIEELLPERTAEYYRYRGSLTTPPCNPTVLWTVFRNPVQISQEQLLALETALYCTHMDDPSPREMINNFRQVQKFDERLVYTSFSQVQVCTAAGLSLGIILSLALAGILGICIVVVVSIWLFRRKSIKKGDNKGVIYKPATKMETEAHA
Chain of Carbonic anhydrase 1 (Homo sapiens) (P00915 2-261 limits assumed): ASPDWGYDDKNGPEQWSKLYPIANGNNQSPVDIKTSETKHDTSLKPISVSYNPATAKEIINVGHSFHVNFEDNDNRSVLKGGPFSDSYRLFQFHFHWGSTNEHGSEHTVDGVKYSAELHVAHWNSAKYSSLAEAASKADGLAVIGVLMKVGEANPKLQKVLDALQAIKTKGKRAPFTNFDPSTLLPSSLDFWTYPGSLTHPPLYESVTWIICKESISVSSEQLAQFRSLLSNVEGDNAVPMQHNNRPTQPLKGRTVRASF
Chain of Carbonic anhydrase 4 (Homo sapiens) (P22748 whole entry): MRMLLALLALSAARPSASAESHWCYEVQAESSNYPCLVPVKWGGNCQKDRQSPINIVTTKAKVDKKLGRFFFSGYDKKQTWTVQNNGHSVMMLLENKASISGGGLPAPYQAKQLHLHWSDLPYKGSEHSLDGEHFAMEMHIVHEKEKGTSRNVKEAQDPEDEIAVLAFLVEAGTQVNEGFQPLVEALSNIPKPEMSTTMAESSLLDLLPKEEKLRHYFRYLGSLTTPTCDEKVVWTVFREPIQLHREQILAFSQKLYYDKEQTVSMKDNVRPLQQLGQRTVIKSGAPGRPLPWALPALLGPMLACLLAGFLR

One may read the half-life as how long it takes for the measured level to halve. High values mean slow decline, low ones rapid decline. Take `CC(C(=O)NCCOc1ccc2oc(=O)ccc2c1)c1ccc(-c2ccccc2)c(F)c1` (stereo not given): the half-life in data set [1] and in data set [2] was over 4 h in each case.

As to `CC1=C(CC(=O)OCCOc2ccc3oc(=O)ccc3c2)c2cc(F)ccc2/C1=C\c1ccc([S+](C)[O-])cc1` (stereo not given), the half-life was over 4 h in data set [1] and 0.0917 h in [2]. The Stability result in [3] is given as “Stable”.

Regarding `COc1ccc2cc([C@H](C)C(=O)NCCOc3ccc4ccc(=O)oc4c3)ccc2c1`, the half-life in data set [1] and in [2] was over 4 h throughout.

Regarding `COc1ccc2c(c1)c(CC(=O)NCCOc1ccc3oc(=O)ccc3c1)c(C)n2C(=O)c1ccc(Cl)cc1`, the half-life in data set [1] and in data set [2] was over 4 h in each case.

As for `COc1ccc2cc([C@H](C)C(=O)NCCOc3ccc4oc(=O)ccc4c3)ccc2c1`, the half-life in data set [1] and in [2] was over 4 h throughout.

For the molecule `COc1ccc2cc([C@H](C)C(=O)OCCOc3ccc4ccc(=O)oc4c3)ccc2c1`, the half-life in [1] was over 4 h; in [2] it was under 0.0167 h. The Stability entry in [3] is on record as “Stable”.

Regarding `CC(C(=O)OCCOc1ccc2oc(=O)ccc2c1)c1ccc(-c2ccccc2)c(F)c1` (racemic), the values for the half-life in data set [1] and in [2] were over 4 h and 0.0217 h, respectively. Besides, in data set [3], the Stability entry is on record as “Stable”.

For the molecule `CC1=C(CC(=O)NCCOc2ccc3ccc(=O)oc3c2)c2cc(F)ccc2/C1=C\c1ccc([S+](C)[O-])cc1` (stereo not given), the half-life in data set [1] and in [2] was over 4 h each time.

For orientation: inhibition means the percentage by which the read-out fell short of the control. Take `CC(C)Cc1ccc(C(C)C(=O)NCCOc2ccc3ccc(=O)oc3c2)cc1` (stereo not given): the half-life in data set [1] and in [2] was over 4 h each time. Also, the outcome in [4] was Active. The inhibition at 5 min, 10 µM in [5] was 5 to 30%. The inhibition result in [6] and in data set [7] was “Active” in each case.

Consider `CC(C(=O)NCCOc1ccc2ccc(=O)oc2c1)c1cccc(C(=O)c2ccccc2)c1` (stereo not given), for which the half-life in [1] and in [2] was over 4 h in each case.

With `CC(C(=O)O)c1cccc(C(=O)c2ccccc2)c1` (stereo not given) [KETOPROFEN], the outcome in data set [8] and in [11] was inactive. Besides, the outcome in data set [9], in [10] and in [12] was Active. Moreover, in data set [5], the inhibition at 5 min, 10 µM stood at 25%.

As to `CC(C(=O)NCCOc1ccc2ccc(=O)oc2c1)c1ccc(-c2ccccc2)c(F)c1` (stereo not given), the half-life in [1] and in [2] was over 4 h in each case.

For the molecule `CC(C(=O)NCCOc1ccc2oc(=O)ccc2c1)c1cccc(C(=O)c2ccccc2)c1` (stereo not given), the half-life in data set [1] and in data set [2] was over 4 h each time.

Regarding `COc1ccc2c(c1)c(CC(=O)NCCOc1ccc3ccc(=O)oc3c1)c(C)n2C(=O)c1ccc(Cl)cc1`, the half-life in [1] and in data set [2] was over 4 h throughout.

As to `COc1ccc2cc([C@H](C)C(=O)OCCOc3ccc4oc(=O)ccc4c3)ccc2c1`, the half-life in data set [1] is over 4 h; in [2], 0.0183 h. The Stability entry in data set [3] is on record as “Stable”.

With `O=C(Cc1ccccc1Nc1c(Cl)cccc1Cl)NCCOc1ccc2ccc(=O)oc2c1`, the half-life in data set [1] and in data set [2] was over 4 h each time. Moreover, in data set [5], the inhibition at 5 min, 10 µM was over 15%.

As to `CC(C(=O)OCCOc1ccc2ccc(=O)oc2c1)c1ccc(-c2ccccc2)c(F)c1` (racemic), the half-life in data set [1] is over 4 h; in data set [2], 0.04 h. The Stability entry in data set [3] is reported as “Stable”.

One may read the Ki as the dissociation constant of the complex between target and ligand, obtained from inhibition or displacement. Read a high Ki as weaker binding. In the case of `CC(C)Cc1ccc(C(C)C(=O)OCCOc2ccc3ccc(=O)oc3c2)cc1` (racemic), the Ki in [13] is over 10000 nM; in data set [14] it was 5.3 nM; in data set [15] it was 3.9 nM; in [16] it was over 10000 nM; in [17], over 10000 nM; in [18] it was 6.5 nM. Further, the half-life in data set [1] was over 4 h; in [2] it was 0.0533 h. Moreover, the inhibition at 5 min, 10 µM in data set [5] fell in the range of 5 to 30%. Besides, in data set [3], the Stability entry is on record as “Stable”.

In the case of `O=C(Cc1ccccc1Nc1c(Cl)cccc1Cl)NCCOc1ccc2oc(=O)ccc2c1`, the half-life in [1] and in data set [2] was over 4 h each time. The inhibition at 5 min, 10 µM in data set [5] lay within 5 to 30%. Also, the inhibition in data set [7] was 75%.

`CC1=C(CC(=O)NCCOc2ccc3oc(=O)ccc3c2)c2cc(F)ccc2/C1=C\c1ccc([S+](C)[O-])cc1` (stereo not given): the half-life in [1] and in data set [2] was over 4 h throughout.

For `O=C(Cc1ccccc1Nc1c(Cl)cccc1Cl)OCCOc1ccc2oc(=O)ccc2c1`, the results for the half-life in [1] and in [2] were 0.533 h and under 0.0167 h, respectively. Moreover, the Stability entry in data set [3] is “Stable”.

With `O=C(Cc1ccccc1Nc1c(Cl)cccc1Cl)OCCOc1ccc2ccc(=O)oc2c1`, the half-life in [1] was 0.3 h; in data set [2] it was under 0.0167 h. Also, the Stability entry in [3] is recorded as “Stable”.

As to `CC(C)Cc1ccc(C(C)C(=O)O)cc1` (stereo not given) [IBUPROFEN], in data set [19], the result was Active. Also, the inhibition at 5 min, 10 µM in data set [5] was over 60%.

`O=C(O)Cc1ccccc1Nc1c(Cl)cccc1Cl` [DICLOFENAC]: the inhibition at 5 min, 10 µM in [5] turned out to be 15%.

For `CC(C)Cc1ccc(C(C)C(=O)OCCOc2ccc3oc(=O)ccc3c2)cc1` (racemic), the Ki in data set [13] is over 10000 nM; in data set [14], 459 nM; in data set [15], 25.3 nM; in data set [16] it was over 10000 nM; in data set [17], over 10000 nM; in data set [18], 3.6 nM. Also, the half-life in data set [1] is over 4 h; in [2], 0.0583 h. Besides, the inhibition at 5 min, 10 µM in [5] lay within 5 to 30%. For the same molecule, the Stability entry in data set [3] is listed as “Stable”.

As for `CC(C)Cc1ccc(C(C)C(=O)NCCOc2ccc3oc(=O)ccc3c2)cc1` (stereo not given), the half-life in [1] and in [2] was over 4 h each time. Besides, the inhibition at 5 min, 10 µM in data set [5] is 5 to 30%.

As to `CC1=C(CC(=O)OCCOc2ccc3ccc(=O)oc3c2)c2cc(F)ccc2/C1=C\c1ccc([S+](C)[O-])cc1` (stereo not given), the half-life in data set [1] was over 4 h; in data set [2] it was 0.277 h. Moreover, the Stability result in data set [3] is recorded as “Stable”.

Consider `COc1ccc2c(c1)c(CC(=O)OCCOc1ccc3ccc(=O)oc3c1)c(C)n2C(=O)c1ccc(Cl)cc1`, for which the half-life is over 4 h in [1] and 0.0333 h in data set [2]. In addition, the Stability entry in data set [3] is “Stable”.

With `COc1ccc2c(c1)c(CC(=O)OCCOc1ccc3oc(=O)ccc3c1)c(C)n2C(=O)c1ccc(Cl)cc1`, the results for the half-life in [1] and in [2] were over 4 h and 0.0467 h, respectively. In data set [3], the Stability entry is “Stable”.
